Experiments:
Experiment in all cases: relative viability (nuclei count vs DMSO), 5 days (fraction); higher = more cells survive
OSI-027 + Navitoclax = compound: COc1cccc2cc(-c3nc([C@H]4CC[C@H](C(=O)O)CC4)n4ncnc(N)c34)[nH]c12 [OSI-027] + CC1(C)CCC(c2ccc(Cl)cc2)=C(CN2CCN(c3ccc(C(=O)NS(=O)(=O)c4ccc(N[C@H](CCN5CCOCC5)CSc5ccccc5)c(S(=O)(=O)C(F)(F)F)c4)cc3)CC2)C1 [Navitoclax] (partner 0.5 µM)
Summary of the method: (§1)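 Relative viability equals treated-well nuclei counts divided by vehicle-well nuclei counts. Counts came from 4× images of lung cancer cell lines grown in 1536-well plates for 5 days after pin-tool dosing on the day after seeding. Dosing used one drug alone or a fixed anchor-drug dose plus five library-drug doses (not always all listed) in √10 steps, and values are medians of duplicate plates.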

OSI-027 + Foretinib = compound: COc1cccc2cc(-c3nc([C@H]4CC[C@H](C(=O)O)CC4)n4ncnc(N)c34)[nH]c12 [OSI-027] + COc1cc2c(Oc3ccc(NC(=O)C4(C(=O)Nc5ccc(F)cc5)CC4)cc3F)ccnc2cc1OCCCN1CCOCC1 [Foretinib] (partner 0.25 µM)
Summary of the method: as §1

OSI-027 + Vorinostat = compound: COc1cccc2cc(-c3nc([C@H]4CC[C@H](C(=O)O)CC4)n4ncnc(N)c34)[nH]c12 [OSI-027] + O=C(CCCCCCC(=O)Nc1ccccc1)NO [Vorinostat] (partner 1 µM)
Summary of the method: as §1

Alpelisib + Pemetrexed = compound: Cc1nc(NC(=O)N2CCC[C@H]2C(N)=O)sc1-c1ccnc(C(C)(C)C(F)(F)F)c1 [Alpelisib] + Nc1nc2[nH]cc(CCc3ccc(C(=O)N[C@@H](CCC(=O)O)C(=O)O)cc3)c2c(=O)[nH]1 [Pemetrexed] (partner 0.2 µM)
Summary of the method: as §1

## UMC-11
OSI-027 + Navitoclax; first compound 0.01 µM
  relative viability: 0.317
OSI-027 + Navitoclax; first compound 0.03162 µM
  relative viability: 0.29
OSI-027 + Navitoclax; first compound 0.1 µM
  relative viability: 0.29
OSI-027 + Navitoclax; first compound 0.3162 µM
  relative viability: 0.257
OSI-027 + Navitoclax; first compound 1 µM
  relative viability: 0.216
OSI-027 + Foretinib; first compound 0.01 µM
  relative viability: 0.903
OSI-027 + Foretinib; first compound 0.03162 µM
  relative viability: 0.866
OSI-027 + Foretinib; first compound 0.1 µM
  relative viability: 0.77
OSI-027 + Foretinib; first compound 0.3162 µM
  relative viability: 0.671
OSI-027 + Foretinib; first compound 1 µM
  relative viability: 0.444
OSI-027 + Vorinostat; first compound 0.01 µM
  relative viability: 0.379
OSI-027 + Vorinostat; first compound 0.03162 µM
  relative viability: 0.371
OSI-027 + Vorinostat; first compound 0.1 µM
  relative viability: 0.376
OSI-027 + Vorinostat; first compound 0.3162 µM
  relative viability: 0.348
OSI-027 + Vorinostat; first compound 1 µM
  relative viability: 0.275
Alpelisib + Pemetrexed; first compound 0.04 µM
  relative viability: 0.732
Alpelisib + Pemetrexed; first compound 0.1265 µM
  relative viability: 0.709
Alpelisib + Pemetrexed; first compound 0.4 µM
  relative viability: 0.844
Alpelisib + Pemetrexed; first compound 1.265 µM
  relative viability: 0.699
Alpelisib + Pemetrexed; first compound 4 µM
  relative viability: 0.692
